Reference: EP1078630A1, “Use of sigma receptor agonists for the treatment of depression” (WARNER-LAMBERT COMPANY, priority 1999, dated 2001)

Experiments:
[1] = system: Male Swiss OF1 mice; assay: Forced swim test in non-operated Swiss mice (duration of immobility); type: in vivo
Description: (§1) Male Swiss OF1 mice (Breeding center of the Faculty of Pharmacy, Montpellier, France), aged 5-6 weeks and weighing 30 ± 2 g are used throughout the study. Animals are housed in plastic cages in groups. They have free access to laboratory chow and water, except during behavioral experiments, and they are kept in a regulated environment (23 ± 1°C, 40-60% humidity) under a 12-hr light/dark cycle (light on at 7:00 a.m.). Experiments are carried out between 9:00 a.m. and 6:00 p.m., in a soundproof and air-regulated experimental room, to which mice are habituated at least 30 min before each experiment.
(§2) PROG and finasteride are suspended in sesame oil; other drugs are solubilized in distilled water or saline solution. Drugs are injected subcutaneously (s.c.) or intraperitoneally (i.p.), in a volume of 100 µl per 20 g of body weight.
(§3) Each mouse is placed individually in a glass cylinder (diameter 12 cm, height 24 cm) filled with water at a height of 12 cm. Water temperature is maintained at 22-23°C. The animal is forced to swim for 15 min on the first day. Animals are then allowed to return to their home cage. On the second day, each mouse is placed again into the water and forced to swim for 6 min. The session is videotaped and the duration of immobility during the last 5 min is measured. The mouse is considered as immobile when it stops struggling and moves only to remain floating in the water, keeping its head above water. Drugs are administered 30 min before the session on the second day. Finasteride is administered twice, 14 and 2 hr before the session on day 2.
(§4) Results are expressed as means ± S.E.M. Data are analyzed using the Dunnett's multiple comparisons test after an analyzis of variance (ANOVA, F values). The criterion for statistical significance is P < 0.05.

[2] = literature (Ukai et al. 1998, Matsuno et al. 1996, Tottori et al. 1997, Kinsora et al. 1998); cited from earlier work
[3] = system: AdX/CX Swiss mice; assay: Forced swim test in adrenalectomized/castrated (AdX/CX) Swiss mice; type: in vivo; settings: for effect in AdX/CX animals as compared to non-operated mice: comparison of AdX/CX with non-operated animals; for influence of removal of circulating steroids on the antidepressant effect: AdX/CX versus non-operated mice
Description: as §1, §2, §3
About one week after habituation to the animal facilities, animals are anaesthetized with sodium pentobarbital 2%, 100 µl/30 g body weight i.p. Both adrenal glands are removed, through incisions in the back of the animal, just below the breast ribs. The skin is sutured. Then, both testes are ligatured and cut, through an incision in the scrotum. Animals received an injection of gentamycine 10 mg/kg i.p. and recovered within few hours from surgery. After surgery, drinking tap water is replaced by saccharose 1%, NaCI 0.9% solution. Animals are used for behavioral experiments six days after surgery.
as §4

## C=CCN1CCC2(C)c3cc(O)ccc3CC1C2C (single isomer, unassigned; (+)) [(+)-SKF-10,047]
[1]; 30 mg/kg, Fig. 1B
  immobility time: decreases the immobility time
[2]
  antidepressant effects in animal models: reduce the immobility time in the forced swim test or are active in the tail suspension test

## CC(C)=CCN1CCC2(C)c3cc(O)ccc3CC1C2C (single isomer, unassigned; (+)) [(+)-pentazocine]
[2]
  antidepressant effects in animal models: reduce the immobility time in the forced swim test or are active in the tail suspension test

## C[C@]12CC[C@H](OS(=O)(=O)O)CC1=CC[C@@H]1[C@@H]2CC[C@]2(C)C(=O)CC[C@@H]12 [DHEAS]
[3]; AdX/CX animals, 5-60 mg/kg dose-range, Fig. 7
  immobility time: significant diminution of the immobility time at all the doses examined
[3]
  effect in AdX/CX animals as compared to non-operated mice: in a more efficient manner as compared to non-operated animals
[1]; 10 mg/kg dose (5-60 mg/kg range tested), Fig. 3A
  immobility time: slightly but significantly shortens the immobility time
[1]; dosages lower or higher than 10 mg/kg within 5-60 mg/kg, Fig. 3A
  immobility time: devoid of effect

## Cc1ccccc1NC(=N)Nc1ccccc1C [DTG]
[2]
  antidepressant effects in animal models: reduce the immobility time in the forced swim test or are active in the tail suspension test

## CC(C)(C)NC(=O)[C@H]1CC[C@H]2[C@@H]3CC[C@H]4NC(=O)C=C[C@]4(C)[C@H]3CC[C@]12C [Finasteride, finasteride]
[3]; finasteride pretreatment (25 mg/kg s.c., 14 and 2 hr before session) in vehicle-treated AdX/CX mice, Fig. 5
  immobility time: does not affect the immobility time
[3]; finasteride pretreatment (25 mg/kg s.c., 14 and 2 hr before), igmesine 60 mg/kg, AdX/CX mice, Fig. 5
  effect on the diminution of immobility time induced by igmesine: significantly alters the diminution induced by igmesine

## CCCN(CCC)CCc1ccc(OC)c(OCCc2ccccc2)c1 [NE-100]
[3]; NE-100 i.p. 15 min before DHEAS, AdX/CX mice, Fig. 8B
  antagonism of the antidepressant effect of DHEAS: fully antagonizes
[3]; NE-100 i.p. 15 min before igmesine, AdX/CX mice, Fig. 8A
  antagonism of the antidepressant effect of igmesine: fully antagonizes
[1]; 1-10 mg/kg i.p. dose-range, given alone, Fig. 1C
  immobility time: does not affect the immobility time by itself
[1]; NE-100 10 mg/kg pre-administered i.p. 15 min before igmesine, Fig. 1D
  antagonism of the reduction of immobility time induced by igmesine: completely antagonizes the reduction of immobility time induced by igmesine
[1]; NE-100 i.p. 15 min before DHEAS, Fig. 4B
  antagonism of the DHEAS-induced diminution of immobility time: prevents the DHEAS-induced diminution of immobility time

## COc1cccc2c1CCC(=O)N2CCCN1CCN(c2cccc(Cl)c2)CC1 [OPC14523]
[2]
  antidepressant effects in animal models: reduce the immobility time in the forced swim test or are active in the tail suspension test

## CC(=O)[C@H]1CC[C@H]2[C@@H]3CC=C4C[C@@H](OS(=O)(=O)O)CC[C@]4(C)[C@H]3CC[C@]12C [PREGS]
[1]; 5-40 mg/kg dose range, Fig. 3B
  immobility time: fails to affect the immobility time

## CC(=O)[C@H]1CC[C@H]2[C@@H]3CCC4=CC(=O)CC[C@]4(C)[C@H]3CC[C@]12C [PROG, progesterone]
[1]; 5-60 mg/kg dose range, given alone, Fig. 3C
  immobility time: does not affect the immobility time by itself
[1]; PROG 20-60 mg/kg pre-administered before DHEAS 10 mg/kg, Fig. 3D
  antagonism of the DHEAS effect on immobility time: significant antagonism of its effect
[1]; PROG pre-administered i.p. 15 min before igmesine, Fig. 4A
  antagonism of the igmesine-induced reduction of immobility: fully blocks the igmesine-induced reduction of immobility

## COc1ccc(CCN2CCN(CCCc3ccccc3)CC2)cc1OC [SA4503]
[2]
  antidepressant effects in animal models: reduce the immobility time in the forced swim test or are active in the tail suspension test

## CNCCCN1c2ccccc2CCc2ccccc21 [desipramine]
[3]
  influence of removal of circulating steroids on the antidepressant effect: failed to be affected by the removal of circulating steroids
[1]; 30 and 60 mg/kg i.p., Fig. 2
  immobility time: shortened the immobility time

## CNCCC(Oc1ccc(C(F)(F)F)cc1)c1ccccc1 (stereo not drawn) [fluoxetine]
[3]; AdX/CX Swiss mice, i.p. 30 min before session on day 2, Fig. 6
  antidepressant effect in the forced swim test: antidepressant effect
[3]
  influence of removal of circulating steroids on the antidepressant effect: failed to be affected by the removal of circulating steroids
[1]; 30 and 60 mg/kg i.p., Fig. 2
  immobility time: shortened the immobility time

## CCC(C/C=C/c1ccccc1)(c1ccccc1)N(C)CC1CC1.Cl (stereo not drawn) [igmesine, (E)-(+)-N-(cyclopropylmethyl)-α-ethyl-N-methyl-α-(3-phenyl-2-propenyl)benzenemethanamine hydrochloride]
[3]; AdX/CX animals, 20 and 60 mg/kg, dose-dependent, Fig. 5
  immobility time: shortens significantly the immobility time
[3]
  effect in AdX/CX animals as compared to non-operated mice: enhanced
[1]; 60 mg/kg i.p., 30 min before session on day 2, Fig. 1A
  immobility time: significantly shortens the immobility time
[2]
  antidepressant effects in animal models: reduce the immobility time in the forced swim test or are active in the tail suspension test
